Source: the NIST ThermoML archive (doi:10.1016/j.jct.2013.10.031)
± gives the expanded uncertainty stated by the source.

Assay: wn = mass fraction of the nth substance listed
Conditions: Gas, Burnett expansion method

## FCC(F)(F)F [1,1,1,2-tetrafluoroethane] + CCC
299.04 K, 290.2 kPa, w2 = 0.55
  mass density: 7.2808 ± 0.53 kg/m3
299.04 K, 330.1 kPa, w2 = 0.6
  mass density: 7.994 ± 0.51 kg/m3
299.04 K, 380.6 kPa, w2 = 0.55
  mass density: 9.6815 ± 0.55 kg/m3
299.04 K, 432.1 kPa, w2 = 0.6
  mass density: 10.6297 ± 0.54 kg/m3
299.04 K, 496.4 kPa, w2 = 0.55
  mass density: 12.8736 ± 0.58 kg/m3
299.04 K, 561.9 kPa, w2 = 0.6
  mass density: 14.1346 ± 0.57 kg/m3
299.04 K, 724.4 kPa, w2 = 0.6
  mass density: 18.7949 ± 0.62 kg/m3
299.04 K, 824.2 kPa, w2 = 0.55
  mass density: 22.7626 ± 0.69 kg/m3
299.05 K, 180.8 kPa, w2 = 0.65
  mass density: 4.1345 ± 0.47 kg/m3
299.05 K, 238.4 kPa, w2 = 0.65
  mass density: 5.4977 ± 0.48 kg/m3
299.05 K, 313.5 kPa, w2 = 0.65
  mass density: 7.3105 ± 0.49 kg/m3
299.05 K, 410.5 kPa, w2 = 0.65
  mass density: 9.7208 ± 0.52 kg/m3
299.05 K, 534.3 kPa, w2 = 0.65
  mass density: 12.9262 ± 0.55 kg/m3
299.05 K, 642.9 kPa, w2 = 0.55
  mass density: 17.1183 ± 0.62 kg/m3
299.06 K, 689.6 kPa, w2 = 0.65
  mass density: 17.1876 ± 0.59 kg/m3
299.06 K, 880.4 kPa, w2 = 0.65
  mass density: 22.8543 ± 0.62 kg/m3
299.06 K, 922.6 kPa, w2 = 0.6
  mass density: 24.9906 ± 0.66 kg/m3
299.92 K, 198.1 kPa, w2 = 0.5
  mass density: 5.06523 ± 0.54 kg/m3
299.92 K, 261.1 kPa, w2 = 0.5
  mass density: 6.74709 ± 0.54 kg/m3
299.92 K, 343.5 kPa, w2 = 0.5
  mass density: 8.9873 ± 0.56 kg/m3
299.92 K, 449.9 kPa, w2 = 0.5
  mass density: 11.9714 ± 0.58 kg/m3
299.92 K, 585.2 kPa, w2 = 0.5
  mass density: 15.9465 ± 0.62 kg/m3
299.92 K, 754.7 kPa, w2 = 0.5
  mass density: 21.2412 ± 0.68 kg/m3
299.93 K, 961.3 kPa, w2 = 0.5
  mass density: 28.294 ± 0.76 kg/m3
300.04 K, 162.1 kPa, w2 = 0.4
  mass density: 4.47962 ± 0.58 kg/m3
300.04 K, 213.8 kPa, w2 = 0.4
  mass density: 5.96699 ± 0.58 kg/m3
300.04 K, 369.1 kPa, w2 = 0.4
  mass density: 10.5874 ± 0.62 kg/m3
300.04 K, 481.6 kPa, w2 = 0.4
  mass density: 14.1031 ± 0.65 kg/m3
300.04 K, 624.3 kPa, w2 = 0.4
  mass density: 18.786 ± 0.7 kg/m3
300.04 K, 801.2 kPa, w2 = 0.4
  mass density: 25.0237 ± 0.77 kg/m3
300.04 K, 1014.7 kPa, w2 = 0.4
  mass density: 33.3323 ± 0.82 kg/m3
300.05 K, 281.4 kPa, w2 = 0.4
  mass density: 7.94819 ± 0.6 kg/m3
300.28 K, 1155.2 kPa, w2 = 0.45
  mass density: 37.6831 ± 0.87 kg/m3
300.3 K, 250.1 kPa, w2 = 0.45
  mass density: 6.74559 ± 0.58 kg/m3
300.3 K, 328.7 kPa, w2 = 0.45
  mass density: 8.98533 ± 0.58 kg/m3
300.3 K, 430.2 kPa, w2 = 0.45
  mass density: 11.9689 ± 0.61 kg/m3
300.3 K, 560 kPa, w2 = 0.45
  mass density: 15.9432 ± 0.65 kg/m3
300.3 K, 722.6 kPa, w2 = 0.45
  mass density: 21.2369 ± 0.7 kg/m3
300.3 K, 921.7 kPa, w2 = 0.45
  mass density: 28.2885 ± 0.8 kg/m3
303 K, 206 kPa, w2 = 0.65
  mass density: 4.6675 ± 0.47 kg/m3
303 K, 271.6 kPa, w2 = 0.65
  mass density: 6.2064 ± 0.48 kg/m3
303 K, 356.7 kPa, w2 = 0.65
  mass density: 8.2528 ± 0.49 kg/m3
303 K, 466.3 kPa, w2 = 0.65
  mass density: 10.974 ± 0.52 kg/m3
303 K, 605.7 kPa, w2 = 0.65
  mass density: 14.5921 ± 0.55 kg/m3
303.01 K, 228 kPa, w2 = 0.55
  mass density: 5.5856 ± 0.51 kg/m3
303.01 K, 513.7 kPa, w2 = 0.55
  mass density: 13.1325 ± 0.56 kg/m3
303.01 K, 665.4 kPa, w2 = 0.55
  mass density: 17.4628 ± 0.61 kg/m3
303.01 K, 780 kPa, w2 = 0.65
  mass density: 19.4028 ± 0.6 kg/m3
303.01 K, 853.2 kPa, w2 = 0.55
  mass density: 23.2201 ± 0.68 kg/m3
303.02 K, 300.2 kPa, w2 = 0.55
  mass density: 7.4272 ± 0.52 kg/m3
303.02 K, 393.7 kPa, w2 = 0.55
  mass density: 9.876 ± 0.54 kg/m3
303.02 K, 1078.8 kPa, w2 = 0.55
  mass density: 30.8763 ± 0.69 kg/m3
303.03 K, 991 kPa, w2 = 0.65
  mass density: 25.7988 ± 0.64 kg/m3
303.1 K, 231.6 kPa, w2 = 0.6
  mass density: 5.4683 ± 0.49 kg/m3
303.1 K, 304.9 kPa, w2 = 0.6
  mass density: 7.2713 ± 0.5 kg/m3
303.1 K, 399.8 kPa, w2 = 0.6
  mass density: 9.6687 ± 0.52 kg/m3
303.1 K, 521.7 kPa, w2 = 0.6
  mass density: 12.8566 ± 0.55 kg/m3
303.1 K, 675.5 kPa, w2 = 0.6
  mass density: 17.0956 ± 0.59 kg/m3
303.1 K, 865.6 kPa, w2 = 0.6
  mass density: 22.7325 ± 0.66 kg/m3
303.11 K, 1092.1 kPa, w2 = 0.6
  mass density: 30.2268 ± 0.71 kg/m3
304.1 K, 860.4 kPa, w2 = 0.4
  mass density: 26.6525 ± 0.78 kg/m3
304.1 K, 1087.7 kPa, w2 = 0.4
  mass density: 35.5024 ± 0.83 kg/m3
304.11 K, 174.8 kPa, w2 = 0.4
  mass density: 4.77108 ± 0.57 kg/m3
304.11 K, 397.4 kPa, w2 = 0.4
  mass density: 11.2764 ± 0.62 kg/m3
304.11 K, 518.4 kPa, w2 = 0.4
  mass density: 15.0206 ± 0.65 kg/m3
304.11 K, 671.1 kPa, w2 = 0.4
  mass density: 20.0084 ± 0.7 kg/m3
304.12 K, 230.5 kPa, w2 = 0.4
  mass density: 6.35521 ± 0.58 kg/m3
304.12 K, 303.2 kPa, w2 = 0.4
  mass density: 8.46542 ± 0.59 kg/m3
304.18 K, 860.4 kPa, w2 = 0.5
  mass density: 24.4745 ± 0.71 kg/m3
304.19 K, 302.4 kPa, w2 = 0.5
  mass density: 7.77376 ± 0.55 kg/m3
304.19 K, 396.5 kPa, w2 = 0.5
  mass density: 10.3551 ± 0.57 kg/m3
304.19 K, 517.4 kPa, w2 = 0.5
  mass density: 13.7935 ± 0.6 kg/m3
304.19 K, 670.5 kPa, w2 = 0.5
  mass density: 18.3734 ± 0.64 kg/m3
304.19 K, 1088.7 kPa, w2 = 0.5
  mass density: 32.6005 ± 0.78 kg/m3
304.23 K, 1142.8 kPa, w2 = 0.45
  mass density: 36.7316 ± 0.82 kg/m3
304.24 K, 907.2 kPa, w2 = 0.45
  mass density: 27.5748 ± 0.78 kg/m3
304.25 K, 248 kPa, w2 = 0.45
  mass density: 6.57513 ± 0.57 kg/m3
